Experiment [1] has as its target T1, HiBit-BRG1 fusion protein (Homo sapiens, UniProt P51532).
T1 construct: expressed in transfected cells
Description: HiBiT-BRG1 cell-based degradation assay (Nano-Glo HiBiT Lytic Detection, 24 h). The settings on record: stable HeLa cell line expressing HiBit-BRG1 and LgBit; for Dmax: read-out: BRG1 HiBit Degradation Maximum (%); for DC50: read-out: BRMG1 HiBit Degradation IC50. How it is done: (§1) Procedure: A stable HeLa cell line expressing HiBiT-BRM was generated. On day 0, 5000 cells were seeded in 40 μL of media into each well of 384-well cell culture plates. On day 1, cells were treated with 120 nL DMSO or 120 nL of 3-fold serially DMSO-diluted compounds (10 points in duplicate with 30 μM as final top dose). Subsequently plates were incubated for 24 h in a standard tissue culture incubator and equilibrated at room temperature for 15 minutes. Nano-Glo HiBiT Lytic Detection System (Promega N3050) reagent was freshly prepared and 20 ul was added to each well. Upon addition of this LgBit-containing reagent, the HiBiT and LgBiT proteins associate to form the luminescent NanoBiT Iuciferase. The plates were shaken for 10 minutes at room temperature and the bioluminescence read using an EnVision plate reader (PerkinElmer).
For measurement of BRG1 degradation, a stable HeLa cell line expressing HiBit-BRG1 and LgBit was generated. The same protocol as above was then followed.
(§2) The degradation % was calculated using the following formula: % degradation=100%-100%×(LumSample−LumLC)/(LumHC−LumLC). DMSO treated cells are employed as High Control (HC) and 2 μM of a known BRM/BRG1 degrader standard treated cells are employed as Low Control (LC).
On the technique in general: The HiBiT peptide binds its large partner to form an active luciferase.

A further experiment addresses T2, HiBit-BRM fusion protein (Homo sapiens, UniProt P51531).
T2 construct: expressed in transfected cells
Description: HiBiT-BRM cell-based degradation assay (Nano-Glo HiBiT Lytic Detection, 24 h). The following applies: stable HeLa cell line expressing HiBiT-BRM; for DC50: read-out: BRM HiBit Degradation IC50. How it is done:
as §1, §2

Each structure is given as a SMILES string. Bounds are passed on as bounds.

T2 sequence (P51531 whole entry, the tested form may be a part): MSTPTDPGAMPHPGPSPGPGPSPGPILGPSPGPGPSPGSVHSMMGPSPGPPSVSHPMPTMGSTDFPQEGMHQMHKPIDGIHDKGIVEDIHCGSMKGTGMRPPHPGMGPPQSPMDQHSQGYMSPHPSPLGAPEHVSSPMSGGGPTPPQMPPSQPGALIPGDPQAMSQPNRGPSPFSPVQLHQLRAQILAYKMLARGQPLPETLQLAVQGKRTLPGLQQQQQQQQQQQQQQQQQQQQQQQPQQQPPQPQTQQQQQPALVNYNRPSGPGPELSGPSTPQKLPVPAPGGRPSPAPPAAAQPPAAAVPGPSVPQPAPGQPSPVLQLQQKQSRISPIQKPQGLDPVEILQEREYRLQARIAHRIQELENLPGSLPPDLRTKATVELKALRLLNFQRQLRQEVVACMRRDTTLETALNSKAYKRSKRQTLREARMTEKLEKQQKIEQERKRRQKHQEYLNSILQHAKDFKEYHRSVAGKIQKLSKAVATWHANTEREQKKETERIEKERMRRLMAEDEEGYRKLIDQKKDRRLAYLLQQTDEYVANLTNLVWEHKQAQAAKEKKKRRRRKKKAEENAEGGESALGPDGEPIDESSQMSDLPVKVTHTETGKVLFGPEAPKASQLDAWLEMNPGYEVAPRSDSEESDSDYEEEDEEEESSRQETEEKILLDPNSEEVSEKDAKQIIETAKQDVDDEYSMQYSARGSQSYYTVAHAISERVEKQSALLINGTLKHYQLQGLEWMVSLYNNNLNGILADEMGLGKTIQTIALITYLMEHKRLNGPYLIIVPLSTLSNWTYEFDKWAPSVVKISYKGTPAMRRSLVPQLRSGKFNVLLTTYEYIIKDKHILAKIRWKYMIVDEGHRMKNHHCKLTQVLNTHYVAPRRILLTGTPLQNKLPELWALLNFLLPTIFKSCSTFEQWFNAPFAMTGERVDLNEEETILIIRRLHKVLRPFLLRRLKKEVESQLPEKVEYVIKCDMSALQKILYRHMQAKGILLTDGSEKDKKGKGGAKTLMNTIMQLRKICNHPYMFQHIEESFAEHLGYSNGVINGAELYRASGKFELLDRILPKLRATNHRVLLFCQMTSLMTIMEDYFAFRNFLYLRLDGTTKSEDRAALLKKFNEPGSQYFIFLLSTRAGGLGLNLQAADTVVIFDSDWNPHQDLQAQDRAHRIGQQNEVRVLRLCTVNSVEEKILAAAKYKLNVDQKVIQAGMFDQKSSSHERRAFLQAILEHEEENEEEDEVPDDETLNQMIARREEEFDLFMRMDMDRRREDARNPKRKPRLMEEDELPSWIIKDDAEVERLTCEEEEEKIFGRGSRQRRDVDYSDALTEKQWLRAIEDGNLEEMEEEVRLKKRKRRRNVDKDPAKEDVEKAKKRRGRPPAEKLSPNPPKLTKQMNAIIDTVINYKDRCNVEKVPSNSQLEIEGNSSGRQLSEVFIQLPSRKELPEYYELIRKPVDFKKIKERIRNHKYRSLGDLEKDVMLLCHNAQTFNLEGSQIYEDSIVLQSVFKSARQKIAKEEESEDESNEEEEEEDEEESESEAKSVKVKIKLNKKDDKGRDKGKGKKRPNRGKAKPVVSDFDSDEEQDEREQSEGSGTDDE
T1 sequence (P51532 whole entry, the tested form may be a part): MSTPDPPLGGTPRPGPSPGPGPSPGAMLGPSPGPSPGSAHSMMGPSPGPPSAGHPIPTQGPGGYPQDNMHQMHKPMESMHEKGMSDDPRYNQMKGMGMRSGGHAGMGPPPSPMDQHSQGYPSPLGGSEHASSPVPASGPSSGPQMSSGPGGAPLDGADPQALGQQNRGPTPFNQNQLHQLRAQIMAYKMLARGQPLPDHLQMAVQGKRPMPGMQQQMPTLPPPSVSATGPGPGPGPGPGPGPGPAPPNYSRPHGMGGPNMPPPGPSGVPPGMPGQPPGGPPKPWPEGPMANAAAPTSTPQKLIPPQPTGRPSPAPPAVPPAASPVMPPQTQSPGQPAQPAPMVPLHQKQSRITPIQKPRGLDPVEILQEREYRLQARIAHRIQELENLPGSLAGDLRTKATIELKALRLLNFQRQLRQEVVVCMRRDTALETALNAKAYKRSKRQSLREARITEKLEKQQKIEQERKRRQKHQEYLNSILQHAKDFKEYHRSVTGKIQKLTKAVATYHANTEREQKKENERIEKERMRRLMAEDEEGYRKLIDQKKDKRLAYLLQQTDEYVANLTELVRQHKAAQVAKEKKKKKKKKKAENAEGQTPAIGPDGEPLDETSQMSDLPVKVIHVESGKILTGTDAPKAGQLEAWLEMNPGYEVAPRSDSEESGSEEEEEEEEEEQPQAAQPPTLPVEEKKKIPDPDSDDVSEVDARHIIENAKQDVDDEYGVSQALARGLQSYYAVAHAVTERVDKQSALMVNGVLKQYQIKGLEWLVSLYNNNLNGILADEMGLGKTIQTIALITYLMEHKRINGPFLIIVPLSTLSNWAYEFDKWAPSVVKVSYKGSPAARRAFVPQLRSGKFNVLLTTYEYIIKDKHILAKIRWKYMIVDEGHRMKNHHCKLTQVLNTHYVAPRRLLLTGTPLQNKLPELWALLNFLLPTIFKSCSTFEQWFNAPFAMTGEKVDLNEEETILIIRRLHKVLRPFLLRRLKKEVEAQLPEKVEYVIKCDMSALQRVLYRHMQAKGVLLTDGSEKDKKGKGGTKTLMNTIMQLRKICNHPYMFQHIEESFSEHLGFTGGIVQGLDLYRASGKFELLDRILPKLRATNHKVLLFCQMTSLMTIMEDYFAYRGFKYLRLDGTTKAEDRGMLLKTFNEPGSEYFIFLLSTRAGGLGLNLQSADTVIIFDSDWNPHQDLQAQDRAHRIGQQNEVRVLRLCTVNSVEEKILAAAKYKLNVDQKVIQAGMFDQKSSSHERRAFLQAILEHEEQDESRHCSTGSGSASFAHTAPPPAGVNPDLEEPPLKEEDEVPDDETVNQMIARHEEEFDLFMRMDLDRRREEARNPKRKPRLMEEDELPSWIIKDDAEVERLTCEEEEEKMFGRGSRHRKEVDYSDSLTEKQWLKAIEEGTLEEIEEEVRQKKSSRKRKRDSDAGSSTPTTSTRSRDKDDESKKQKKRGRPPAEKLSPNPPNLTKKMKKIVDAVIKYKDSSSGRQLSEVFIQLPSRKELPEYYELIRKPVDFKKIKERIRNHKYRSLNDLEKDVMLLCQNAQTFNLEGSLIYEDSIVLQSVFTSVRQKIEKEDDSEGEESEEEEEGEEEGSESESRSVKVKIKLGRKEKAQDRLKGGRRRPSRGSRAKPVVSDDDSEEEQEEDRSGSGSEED

Consider `Cc1ncsc1-c1ccc([C@H](C)NC(=O)[C@@H]2C[C@@H](O)CN2C(=O)[C@@H](c2cc(N3C[C@@H]4[C@H](C3)[C@H]4c3sc4nnc(-c5ccccc5O)cc4c3C)no2)C(C)C)cc1` [Compound 16, (2S,4R)-4-hydroxy-1-((R)-2-(3-((1R,5S,6R)-6-(3-(2-hydroxyphenyl)-5-methylthieno[2,3-c]pyridazin-6-yl)-3-azabicyclo[3.1.0]hexan-3-yl)isoxazol-5-yl)-3-methylbutanoyl)-N-((S)-1-(4-(4-methylthiazol-5-yl)phenyl)ethyl)pyrrolidine-2-carboxamide], for which, in experiment [1], the Dmax is above 50% and the DC50 was above 0.01 µM. Moreover, at HiBit-BRM fusion protein, the “BRM HiBit Degradation Maximum (%)” value is “A (“A” indicates maximum degradation ≥75%)” and the DC50 is below 0.01 µM.

With `Cc1ncsc1-c1ccc([C@H](C)NC(=O)[C@@H]2C[C@@H](O)CN2C(=O)[C@@H](c2cc(-c3cnc(N4CC5(CC(c6cc7nnc(-c8ccccc8O)cc7s6)C5)C4)nc3)no2)C(C)C)cc1` [Compound 17, (2S,4R)-4-hydroxy-1-((R)-2-(3-(2-(6-(3-(2-hydroxyphenyl)thieno[3,2-c]pyridazin-6-yl)-2-azaspiro[3.3]heptan-2-yl)pyrimidin-5-yl)isoxazol-5-yl)-3-methylbutanoyl)-N-((S)-1-(4-(4-methylthiazol-5-yl)phenyl)ethyl)pyrrolidine-2-carboxamide], in experiment [1], the Dmax is above 75% and the DC50 is above 0.01 µM. On HiBit-BRM fusion protein, the “BRM HiBit Degradation Maximum (%)” value is recorded as “A (“A” indicates maximum degradation ≥75%)” and the DC50 was below 0.01 µM.

As to `Cc1ncsc1-c1ccc([C@H](C)NC(=O)[C@@H]2C[C@@H](O)CN2C(=O)[C@@H](c2cc(-c3cnc(N4C[C@H]5C[C@@H](C4)[C@@H]5c4cc5cc(-c6ccccc6O)nnc5s4)nc3)no2)C(C)C)cc1` [Compound 18, (2S,4R)-4-hydroxy-1-((R)-2-(3-(2-((1R,5S,6R)-6-(3-(2-hydroxyphenyl)thieno[2,3-c]pyridazin-6-yl)-3-azabicyclo[3.1.1]heptan-3-yl)pyrimidin-5-yl)isoxazol-5-yl)-3-methylbutanoyl)-N-((S)-1-(4-(4-methylthiazol-5-yl)phenyl)ethyl)pyrrolidine-2-carboxamide], in experiment [1], the Dmax was below 50% and the DC50 is above 1 µM. Further, on HiBit-BRM fusion protein, the “BRM HiBit Degradation Maximum (%)” value is “A (“A” indicates maximum degradation ≥75%)” and the DC50 is below 0.01 µM.

On to `Cc1ncsc1-c1ccc([C@H](C)NC(=O)[C@@H]2C[C@@H](O)CN2C(=O)[C@@H](c2cc(N3CC(c4sc5nnc(-c6ccccc6O)cc5c4C)C3)no2)C(C)C)cc1` [Compound 19, (2S,4R)-4-hydroxy-1-((R)-2-(3-(3-(3-(2-hydroxyphenyl)-5-methylthieno[2,3-c]pyridazin-6-yl)azetidin-1-yl)isoxazol-5-yl)-3-methylbutanoyl)-N-((S)-1-(4-(4-methylthiazol-5-yl)phenyl)ethyl)pyrrolidine-2-carboxamide], for which, in experiment [1], the Dmax was below 50% and the DC50 was above 1 µM. On HiBit-BRM fusion protein, the “BRM HiBit Degradation Maximum (%)” value came to 2% and the DC50 was above 1 µM.

Turning to `COc1nc(N2CCC(c3sc4nnc(-c5ccccc5O)cc4c3C)CC2)ccc1-c1cc([C@H](C(=O)N2C[C@H](O)C[C@H]2C(=O)N[C@@H](C)c2ccc(-c3scnc3C)cc2)C(C)C)on1` [Compound 20, (2S,4R)-4-hydroxy-1-((R)-2-(3-(6-(4-(3-(2-hydroxyphenyl)-5-methylthieno[2,3-c]pyridazin-6-yl)piperidin-1-yl)-2-methoxypyridin-3-yl)isoxazol-5-yl)-3-methylbutanoyl)-N-((S)-1-(4-(4-methylthiazol-5-yl)phenyl)ethyl)pyrrolidine-2-carboxamide], in experiment [1], the Dmax is below 50% and the DC50 was above 1 µM. At HiBit-BRM fusion protein, the “BRM HiBit Degradation Maximum (%)” value is “A (“A” indicates maximum degradation ≥75%)” and the DC50 is above 0.01 µM.

For `Cc1ncsc1-c1ccc([C@H](C)NC(=O)[C@@H]2C[C@@H](O)CN2C(=O)[C@@H](c2cc(-c3cnc(N4C[C@H]5C[C@@H]4C[C@@H]5c4cc5cc(-c6ccccc6O)nnc5s4)nc3)no2)C(C)C)cc1` [Compound 22, (2S,4R)-4-hydroxy-1-((R)-2-(3-(2-((1R,4S,5S)-5-(3-(2-hydroxyphenyl)thieno[2,3-c]pyridazin-6-yl)-2-azabicyclo[2.2.1]heptan-2-yl)pyrimidin-5-yl)isoxazol-5-yl)-3-methylbutanoyl)-N-((S)-1-(4-(4-methylthiazol-5-yl)phenyl)ethyl)pyrrolidine-2-carboxamide], in experiment [1], the Dmax was below 50% and the DC50 was above 1 µM. At HiBit-BRM fusion protein, the “BRM HiBit Degradation Maximum (%)” value is listed as “A (“A” indicates maximum degradation ≥75%)” and the DC50 was below 0.01 µM.

For the compound `Cc1ncsc1-c1ccc([C@H](C)NC(=O)[C@@H]2C[C@@H](O)CN2C(=O)[C@@H](c2cc(N3CC4(CC(c5sc6nnc(-c7ccccc7O)cc6c5C)C4)C3)no2)C(C)C)cc1` [Compound 23, (2S,4R)-4-hydroxy-1-((R)-2-(3-(6-(3-(2-hydroxyphenyl)-5-methylthieno[2,3-c]pyridazin-6-yl)-2-azaspiro[3.3]heptan-2-yl)isoxazol-5-yl)-3-methylbutanoyl)-N-((S)-1-(4-(4-methylthiazol-5-yl)phenyl)ethyl)pyrrolidine-2-carboxamide], in experiment [1], the Dmax was below 50% and the DC50 was above 1 µM. Moreover, at HiBit-BRM fusion protein, the “BRM HiBit Degradation Maximum (%)” value is “A (“A” indicates maximum degradation ≥75%)” and the DC50 is below 0.01 µM.

Consider `Cc1ncsc1-c1ccc([C@H](C)NC(=O)[C@@H]2C[C@@H](O)CN2C(=O)[C@@H](c2cc(-c3ccc(N4CC(c5cc6cc(-c7ccccc7O)nnc6s5)C4)nn3)no2)C(C)C)cc1` [Compound 24, (2S,4R)-4-hydroxy-1-((R)-2-(3-(6-(3-(3-(2-hydroxyphenyl)thieno[2,3-c]pyridazin-6-yl)azetidin-1-yl)pyridazin-3-yl)isoxazol-5-yl)-3-methylbutanoyl)-N-((S)-1-(4-(4-methylthiazol-5-yl)phenyl)ethyl)pyrrolidine-2-carboxamide], for which, in experiment [1], the Dmax was above 50% and the DC50 is above 0.1 µM. Also, at HiBit-BRM fusion protein, the “BRM HiBit Degradation Maximum (%)” value is “A (“A” indicates maximum degradation ≥75%)” and the DC50 is above 0.01 µM.

Consider `Cc1ncsc1-c1ccc([C@H](C)NC(=O)[C@@H]2C[C@@H](O)CN2C(=O)[C@@H](c2cc(-c3cnc(N4CC[C@@H](c5sc6nnc(-c7ccccc7O)cc6c5C)[C@H](C)C4)nc3)no2)C(C)C)cc1` [Compound 25, (2S,4R)-4-hydroxy-1-((R)-2-(3-(2-((3S,4R)-4-(3-(2-hydroxyphenyl)-5-methylthieno[2,3-c]pyridazin-6-yl)-3-methylpiperidin-1-yl)pyrimidin-5-yl)isoxazol-5-yl)-3-methylbutanoyl)-N-((S)-1-(4-(4-methylthiazol-5-yl)phenyl)ethyl)pyrrolidine-2-carboxamide], for which, in experiment [1], the Dmax is below 50% and the DC50 is above 1 µM. At HiBit-BRM fusion protein, the “BRM HiBit Degradation Maximum (%)” value is reported as “A (“A” indicates maximum degradation ≥75%)” and the DC50 is above 0.01 µM.

`Cc1ncsc1-c1ccc([C@H](C)NC(=O)[C@@H]2C[C@@H](O)CN2C(=O)[C@@H](c2cc(-c3ccc(N4CCC(c5sc6nnc(-c7ccccc7O)cc6c5C)CC4)cc3)no2)C(C)C)cc1` [Compound 26, (2S,4R)-4-hydroxy-1-((R)-2-(3-(4-(4-(3-(2-hydroxyphenyl)-5-methylthieno[2,3-c]pyridazin-6-yl)piperidin-1-yl)phenyl)isoxazol-5-yl)-3-methylbutanoyl)-N-((S)-1-(4-(4-methylthiazol-5-yl)phenyl)ethyl)pyrrolidine-2-carboxamide]: in experiment [1], the Dmax is below 50% and the DC50 is above 1 µM. Moreover, on HiBit-BRM fusion protein, the “BRM HiBit Degradation Maximum (%)” value is “A (“A” indicates maximum degradation ≥75%)” and the DC50 is below 0.01 µM.

As to `Cc1ncsc1-c1ccc([C@H](C)NC(=O)[C@@H]2C[C@@H](O)CN2C(=O)[C@@H](c2cc(-c3cnc(N4CC[C@H](c5sc6nnc(-c7ccccc7O)cc6c5C)C[C@@H]4C)nc3)no2)C(C)C)cc1` [Compound 27, (2S,4R)-4-hydroxy-1-((R)-2-(3-(2-((2S,4S)-4-(3-(2-hydroxyphenyl)-5-methylthieno[2,3-c]pyridazin-6-yl)-2-methylpiperidin-1-yl)pyrimidin-5-yl)isoxazol-5-yl)-3-methylbutanoyl)-N-((S)-1-(4-(4-methylthiazol-5-yl)phenyl)ethyl)pyrrolidine-2-carboxamide], in experiment [1], the Dmax was below 50% and the DC50 is above 1 µM. Moreover, at HiBit-BRM fusion protein, the “BRM HiBit Degradation Maximum (%)” value was “A (“A” indicates maximum degradation ≥75%)” and the DC50 is below 0.01 µM.

The record behind these values is patent US20250304596A1, “PYRAZINE DERIVATIVES AND USES THEREOF” (FOGHORN THERAPEUTICS INC., priority 2022, published 2025).
